Experimental findings from patent publication US20130072495A1, “FUSED BICYCLIC KINASE INHIBITORS” (OSI Pharmaceuticals, LLC, priority 2010, published 2013) are described below.

Structures are written as SMILES.

A word on the IC50: it is the point on the concentration scale where inhibition reaches its midpoint.

One assay addresses T1, MET (Homo sapiens, UniProt P08581).
T1 construct: endogenous in cells; host or cells: MKN45
Description: MET cell mechanistic assay (MKN45), phosphorylated MET levels. The assay is classed as cell-based. As to conditions: MKN45 cell line, four hours incubation, at least duplicate experiments, read-out: MET mech IC50. On the procedure: The cellular activity of the compounds of the present invention against MET may be determined by the following procedure. MKN45 cells were plated in Falcon 3072 96-well plates in growth media (RPMI, 10% FBS, 1% L-glutamine) at a density of 5000 cells/well and incubated at 37° C., 5% CO2 overnight. The following day, one-tenth volume of a 10× concentration of compounds was added to the wells in a 6-point dilution series. The dilutions series was composed of an initial […] in DMSO, followed by a […] in growth media, for a final DMSO concentration on cells of 0.5%. Control wells were treated with 0.5% DMSO. The typical range of dilution was 10 μM to 3 nM. Once compound was added to the cells, plates were incubated for four hours at 37° C., 5% CO2. Plates were then washed in PBS, and lysed in triton-based lysis buffer. Lysates were transferred to a precoated capture plate made by Biosource (Cat # KHO0281). The phosphorylated MET levels were measured by incubating with a rabbit polyclonal antibody against phosphorylated MET ([pYpYpY1230/1234/1235]) followed by an anti-rabbit antibody conjugated to HRP. Signal was measured on a Wallac Victor plate reader at 450 nm. The DMSO signal of the control wells was defined as 100% and the percent of inhibition of phosphorylated MET was expressed as percent of control. IC50 values were determined from the percent of control data using a standard four-parameter model.
The IC50 values of exemplary compounds of the present invention determined in a MET cell mechanistic assay using the MKN45 cell line according to the procedures described herein in at least duplicate experiments are abbreviated as follows and are shown in Table 2: A, IC50≦0.1 μM; B, 0.1 μM<IC50≦0.5 μM; C, 0.5 μM<IC50≦2 μM; D, IC50>2 μM; ND, not determined. The Example # of Table 2 corresponds to the compound example number as illustrated in the Experimental section above.

A further assay has as its system MKN45 cells. Description: MKN45 cell proliferation assay (CellTiter-Glo). The settings on record: Homo sapiens, MKN-45, 72 h; MKN45 cell line, 3 days incubation, at least duplicate experiments; read-out: Prolif. IC50. Format: cell-based. Here is the method:
The effect of inhibitors on the proliferation of MKN45 cells was determined using the following protocol. MKN45 cells were plated in Corning 3917 96-well white tissue culture treated plates in growth medium (RPMI, 10% FCS) at a density of 5000 cells/well in a total volume of 135 μL and incubated at 37° C., 5% CO2, 95% humidity overnight. The following day, one-tenth volume of a 10× concentration of compounds was added to the wells in an 8-point dilution series. The dilution series was composed of an initial 1:5 dilution of a 10 mM stock of compound in DMSO, followed by serial 1:4 dilutions in DMSO, then a 1:20 dilution in growth medium prior to the 1:10 dilution into the cell plate. Final DMSO concentration on the cells was 0.1%, there were control wells treated with both 0.1% DMSO and no DMSO. The typical dilution range is 10 μM to 0.6 nM. Once the compound was added to the cells, plates were incubated for 3 days at 37° C., 5% CO2 at 95% humidity. On the third day, after allowing all cells and reagents to come to room temperature, 25 μL of CellTiter-Glo reagent (Promega # G7573) was added to the wells. Plates were shaken on a platform for 10 minutes prior to reading luminescence for 0.1 seconds. The signal of the control wells was taken as 100% growth and growth inhibition was expressed as percent of control. IC50 values were determined from the percent of control data using a standard four-parameter model.
The IC50 values of exemplary compounds of the present invention determined in a cell proliferation assay using the MKN45 cell line according to the procedures described herein in at least duplicate experiments are abbreviated as follows and are shown in Table 1: A, IC50≦0.1 μM; B, 0.1 μM<IC50≦0.5 μM; C, 0.5 μM<IC50≦2 μM; D, IC50>2 μM; ND, not determined. The Example # of Table 1 corresponds to the compound example number as illustrated in the Experimental section above.
Treatment of this cell line with a selective MET inhibitor led to induction of apoptosis and inhibition of proliferation, whereas non-MET-amplified cell lines were not affected. Smolen et al., Proc. Natl. Acad. Sci. USA, 103(7):2316-2321 (2006). This cell line is thus “driven” by MET, and antiproliferative effects correlate very well with the inhibition of MET phosphorylation so that the cell proliferation IC50 values can be used as surrogate for the MET cell mechanistic IC50 values. Under the assay conditions described herein, the IC50 values correlate nearly 1:1.
A general note: In ATP-based viability assays light output follows the ATP content of the culture.

T1 sequence (P08581 25-1390): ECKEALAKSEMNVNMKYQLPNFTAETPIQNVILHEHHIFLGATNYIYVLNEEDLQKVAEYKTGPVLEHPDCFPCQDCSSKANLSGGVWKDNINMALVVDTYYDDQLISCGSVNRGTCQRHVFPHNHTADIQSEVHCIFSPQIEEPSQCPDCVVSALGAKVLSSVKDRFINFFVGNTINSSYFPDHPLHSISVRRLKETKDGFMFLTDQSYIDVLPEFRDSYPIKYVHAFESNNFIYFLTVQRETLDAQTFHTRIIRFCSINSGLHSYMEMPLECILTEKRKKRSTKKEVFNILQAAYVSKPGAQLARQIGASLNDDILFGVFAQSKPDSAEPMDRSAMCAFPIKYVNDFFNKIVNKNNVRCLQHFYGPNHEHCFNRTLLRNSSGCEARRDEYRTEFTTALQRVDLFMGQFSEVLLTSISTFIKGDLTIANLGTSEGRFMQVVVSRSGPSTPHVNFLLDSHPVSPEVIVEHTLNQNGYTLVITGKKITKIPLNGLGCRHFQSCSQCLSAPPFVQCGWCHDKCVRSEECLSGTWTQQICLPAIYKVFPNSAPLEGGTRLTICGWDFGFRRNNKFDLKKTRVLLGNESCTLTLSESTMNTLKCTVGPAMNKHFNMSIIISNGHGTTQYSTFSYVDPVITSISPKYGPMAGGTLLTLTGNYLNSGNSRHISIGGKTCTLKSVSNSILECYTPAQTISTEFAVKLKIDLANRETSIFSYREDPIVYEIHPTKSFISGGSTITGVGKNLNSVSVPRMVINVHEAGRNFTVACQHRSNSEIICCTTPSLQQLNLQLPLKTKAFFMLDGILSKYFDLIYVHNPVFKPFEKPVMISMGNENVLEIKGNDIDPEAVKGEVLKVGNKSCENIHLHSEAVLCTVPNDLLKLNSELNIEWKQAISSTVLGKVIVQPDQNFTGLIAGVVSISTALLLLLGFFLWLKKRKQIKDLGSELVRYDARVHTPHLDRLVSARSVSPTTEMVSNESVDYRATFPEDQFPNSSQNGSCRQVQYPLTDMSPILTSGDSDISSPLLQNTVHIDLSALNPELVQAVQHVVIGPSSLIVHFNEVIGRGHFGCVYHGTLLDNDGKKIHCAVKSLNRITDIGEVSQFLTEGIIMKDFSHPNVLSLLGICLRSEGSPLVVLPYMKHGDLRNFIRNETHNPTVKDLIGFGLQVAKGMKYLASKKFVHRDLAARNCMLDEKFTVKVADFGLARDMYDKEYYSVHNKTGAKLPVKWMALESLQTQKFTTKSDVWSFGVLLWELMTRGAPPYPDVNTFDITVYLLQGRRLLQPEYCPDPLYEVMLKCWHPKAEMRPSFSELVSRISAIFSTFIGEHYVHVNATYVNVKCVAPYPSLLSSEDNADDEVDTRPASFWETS

Take `CC(c1c(Cl)ccc(F)c1Cl)c1c[nH]c2ncc(-c3cnn(C4CCNCC4)c3)nc12` (stereo not drawn) [Example 2, 7-[1-(2,6-dichloro-3-fluorophenyl)ethyl]-2-(1-piperidin-4-yl-1H-pyrazol-4-yl)-5H-pyrrolo[2,3-b]pyrazine]: the IC50 on MET and in the assay on MKN45 cells was 100 to 500 nM each time.
Consider `CC(c1c(Cl)ccc(F)c1Cl)c1c[nH]c2ncc(-c3cnn(C4CCN(C=O)CC4)c3)nc12` (stereo not drawn) [Example 3, 4-(4-{7-[1-(2,6-dichloro-3-fluorophenyl)ethyl]-5H-pyrrolo[2,3-b]pyrazin-2-yl}-1H-pyrazol-1-yl)piperidine-1-carbaldehyde], for which the IC50 lay within 100 to 500 nM at MET and 500 to 2000 nM with MKN45 cells.
The like results for `CC(c1c(Cl)ccc(F)c1Cl)c1c[nH]c2nnc(-c3cnn(C4CCNCC4)c3)cc12` (stereo not drawn) [Example 16, 5-[1-(2,6-Dichloro-3-fluorophenyl)ethyl]-3-[1-(piperidin-4-yl)-1H-pyrazol-4-yl]-7H-pyrrolo[2,3-c]pyridazine] were, in that order, > 2000 nM and > 2000 nM.
